Molecules are shown by their SMILES.

Test [1] has as its system T1, composite Cel-L-AChR with Dim-ACR-8 (29/38/63/L1 + Dim-ACR-8).
T1 construct: mixed-species complex of whole subunits; cRNA in Xenopus laevis oocytes with C. elegans RIC-3, UNC-50, UNC-74; LEV-8 replaced by D. immitis ACR-8
Also noted: species or system Xenopus laevis oocytes; Agonist-evoked currents in cRNA-injected oocytes, concentration-response normalized to 100 uM ACh. To be noted: Imax as % of 100 uM ACh response; agonist.

Test [2] has as its target T1, composite Cel-L-AChR with Dim-ACR-8 (29/38/63/L1 + Dim-ACR-8). Description: two-electrode voltage clamp, Xenopus oocytes. Format: cell-based, Caenorhabditis elegans; Dirofilaria immitis. To be noted: read-out: Lev EC50; agonist; responses normalized to 100 μM ACh. (In general: Two-electrode voltage clamp holds a large cell at a set potential and records current.)

T1 sequence (A0A2I6TEL0 22-518): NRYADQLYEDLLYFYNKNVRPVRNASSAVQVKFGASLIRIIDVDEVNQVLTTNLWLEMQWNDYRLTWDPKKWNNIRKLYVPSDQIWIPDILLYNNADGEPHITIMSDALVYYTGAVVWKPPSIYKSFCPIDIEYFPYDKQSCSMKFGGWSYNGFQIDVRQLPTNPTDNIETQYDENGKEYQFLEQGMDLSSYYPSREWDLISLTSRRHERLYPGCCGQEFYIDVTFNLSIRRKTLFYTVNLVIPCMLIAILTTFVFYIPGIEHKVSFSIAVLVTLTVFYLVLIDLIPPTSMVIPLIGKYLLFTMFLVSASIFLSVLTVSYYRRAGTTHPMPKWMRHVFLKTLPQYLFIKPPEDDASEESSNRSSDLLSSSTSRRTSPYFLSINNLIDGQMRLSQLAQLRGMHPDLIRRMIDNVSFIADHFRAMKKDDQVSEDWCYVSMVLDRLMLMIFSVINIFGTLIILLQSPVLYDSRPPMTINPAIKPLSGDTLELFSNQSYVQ
T1 sequence (Q23022 17-511, further chain): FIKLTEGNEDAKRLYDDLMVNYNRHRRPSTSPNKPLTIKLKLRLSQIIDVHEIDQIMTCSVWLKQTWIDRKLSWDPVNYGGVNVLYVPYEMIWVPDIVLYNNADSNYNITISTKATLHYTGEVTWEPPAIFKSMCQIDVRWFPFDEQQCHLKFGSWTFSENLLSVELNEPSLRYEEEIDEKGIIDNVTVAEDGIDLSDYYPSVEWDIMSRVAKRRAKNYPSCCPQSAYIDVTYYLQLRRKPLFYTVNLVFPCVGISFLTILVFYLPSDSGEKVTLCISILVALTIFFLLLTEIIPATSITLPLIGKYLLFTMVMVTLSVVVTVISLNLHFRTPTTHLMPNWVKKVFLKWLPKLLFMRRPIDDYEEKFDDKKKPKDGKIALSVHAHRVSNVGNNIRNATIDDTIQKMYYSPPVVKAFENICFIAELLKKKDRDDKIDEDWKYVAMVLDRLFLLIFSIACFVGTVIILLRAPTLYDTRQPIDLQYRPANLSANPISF
T1 sequence (Q9N587 24-502, further chain): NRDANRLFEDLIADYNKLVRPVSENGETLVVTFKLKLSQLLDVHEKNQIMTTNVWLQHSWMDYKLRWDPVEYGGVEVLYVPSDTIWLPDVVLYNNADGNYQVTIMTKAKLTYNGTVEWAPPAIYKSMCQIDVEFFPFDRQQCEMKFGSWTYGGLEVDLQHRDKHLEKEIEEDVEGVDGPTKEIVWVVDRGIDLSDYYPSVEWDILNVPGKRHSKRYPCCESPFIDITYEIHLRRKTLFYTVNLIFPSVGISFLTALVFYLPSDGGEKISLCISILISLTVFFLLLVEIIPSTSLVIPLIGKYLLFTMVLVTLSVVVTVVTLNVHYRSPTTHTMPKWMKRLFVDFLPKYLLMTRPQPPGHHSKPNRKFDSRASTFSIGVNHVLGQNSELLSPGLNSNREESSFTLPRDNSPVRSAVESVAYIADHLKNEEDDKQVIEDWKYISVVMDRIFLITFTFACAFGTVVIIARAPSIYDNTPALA
T1 sequence (P48181 27-493, further chain): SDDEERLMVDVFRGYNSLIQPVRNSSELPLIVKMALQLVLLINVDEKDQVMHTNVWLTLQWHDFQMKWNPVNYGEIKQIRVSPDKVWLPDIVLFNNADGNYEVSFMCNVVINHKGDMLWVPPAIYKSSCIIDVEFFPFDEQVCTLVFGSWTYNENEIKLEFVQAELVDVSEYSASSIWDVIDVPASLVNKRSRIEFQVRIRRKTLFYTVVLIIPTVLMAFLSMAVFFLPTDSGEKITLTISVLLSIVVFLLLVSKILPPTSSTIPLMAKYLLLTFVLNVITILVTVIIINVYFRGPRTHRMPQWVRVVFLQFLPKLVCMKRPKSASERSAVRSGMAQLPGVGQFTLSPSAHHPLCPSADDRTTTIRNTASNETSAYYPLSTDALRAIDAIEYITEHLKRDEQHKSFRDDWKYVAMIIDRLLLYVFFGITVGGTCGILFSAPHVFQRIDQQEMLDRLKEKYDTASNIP
T1 sequence (Q27218 32-507, further chain): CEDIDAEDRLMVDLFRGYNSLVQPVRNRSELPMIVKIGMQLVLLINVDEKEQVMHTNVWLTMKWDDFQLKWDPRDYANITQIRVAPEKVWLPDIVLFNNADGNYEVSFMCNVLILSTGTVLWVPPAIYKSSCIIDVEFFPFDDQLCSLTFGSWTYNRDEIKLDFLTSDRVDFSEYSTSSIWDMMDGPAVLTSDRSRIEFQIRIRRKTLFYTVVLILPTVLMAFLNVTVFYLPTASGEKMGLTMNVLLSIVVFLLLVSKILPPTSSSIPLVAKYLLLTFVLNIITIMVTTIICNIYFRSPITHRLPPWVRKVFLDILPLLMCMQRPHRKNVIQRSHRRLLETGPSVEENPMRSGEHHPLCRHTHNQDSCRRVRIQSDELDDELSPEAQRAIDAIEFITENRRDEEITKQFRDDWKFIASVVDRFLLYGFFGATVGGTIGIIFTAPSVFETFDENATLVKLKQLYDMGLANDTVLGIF

The term EC50 denotes the concentration at which the effect is half-maximal. For `c1ccc([C@H]2CN3CCSC3=N2)cc1` [levamisole], the “Lev Imax” value in test [1] is recorded as 29.0 ±1.2%. The half-maximal effective concentration (EC50) in test [2] was determined as 5.9 ± 1.3 µM.
